Values joined by “and” are separate entries in the source; they are usually repeats but may differ in a detail not shown here. Equal entries are not always repeated.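 Values below derive from 48-hour exposures of cells grown in 96-well plates, with endpoints linearly interpolated between the two concentrations bracketing the appropriate inhibition level. The concentration for 50% growth inhibition is given as GI50. The concentration for full growth arrest is given as TGI.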
Experiments:
Assay in all cases: NCI anticancer screen, dose series, 48 h
[1] = tested on: SNB-75 CNS
[2] = tested on: OVCAR-4 ovarian
[3] = tested on: A498 renal
[4] = tested on: UACC-257 melanoma
[5] = tested on: HT29 colon
[6] = tested on: CCRF-CEM leukemia
[7] = tested on: MDA-MB-231 breast
[8] = tested on: SK-MEL-5 melanoma
[9] = tested on: U251 CNS
[10] = tested on: LOX IMVI melanoma

SMILES | TGI [1] [µM] | TGI [2] | TGI [3] | TGI [4] | TGI [5] | TGI [6] | TGI [7] | TGI [8] | TGI [9] | TGI [10] | GI50 [2] [µM] | GI50 [3] [µM] | GI50 [4] [µM] | GI50 [5] [µM] | GI50 [6] [µM] | GI50 [7] [µM] | GI50 [8] [µM] | GI50 [9] [µM] | GI50 [10] [µM]
COc1c(Cl)ccc(Cl)c1-c1nnc(-c2c(Cl)c(Cl)c(Cl)c(Cl)c2-c2nc3ccc(C(=O)c4ccccc4)cc3[nH]2)o1 | > 100 | > 100 µM | 85.5 µM | > 100 µM | > 100 µM | 91.7 µM | > 100 µM | 36 µM | > 100 µM | > 100 µM | – | – | – | – | – | – | – | – | –
NC1=CN2c3ccccc3N(CC(=O)N3CCOCC3)C2C=C1 (centres undefined) | > 100 | > 100 µM | > 100 µM | > 100 µM | > 100 µM | > 100 µM | > 100 µM | > 100 µM | > 100 µM | > 100 µM | – | – | – | – | – | – | – | – | –
COc1ccc(NC(=O)c2cc(NC(=O)/C=C/c3ccccc3)c(OC)c(OC)c2)cc1 | 48.5 | > 100 µM | > 100 µM | > 100 µM | > 100 µM | > 100 µM | > 100 µM | > 100 µM | > 100 µM | > 100 µM | – | – | – | – | – | – | – | – | –
CS(=O)(=O)c1nc(-c2cc3c(c(S(C)(=O)=O)n2)CCC3)cc2c1CCC2 | 53.4 | > 100 µM | > 100 µM | > 100 µM | > 100 µM | > 100 µM | > 100 µM | > 100 µM | > 100 µM | > 100 µM | – | – | – | – | – | – | – | – | –
O=c1[nH]nc(Nc2ccccc2)c2nnn(Cc3ccccc3)c12 | 85.3 | > 100 µM | > 100 µM | > 100 µM | > 100 µM | > 100 µM | > 100 µM | > 100 µM | > 100 µM | > 100 µM | – | – | – | – | – | – | – | – | –
Nc1c2c(nc3ccccc13)-c1ccccc1CCC2 | 24.2 | 35.6 µM | 21.4 µM | 19.4 µM | 25.9 µM | 49.1 µM | 27.8 µM | 20.1 µM | 28.3 µM | 25.3 µM | – | – | – | – | – | – | – | – | –
CCOC(=O)C(C(N)=O)c1nc2cc([N+](=O)[O-])ccc2nc1/C=C(\O)c1ccc(C)cc1 (centres undefined) | 42 | > 100 µM | > 67.7 µM | > 100 µM | > 100 µM | > 100 µM | 46.7 µM | > 100 µM | 33.5 µM | 57.4 µM | – | – | – | – | – | – | – | – | –
CC1CN=C(c2ccc3c(c2)Cc2cc(C4=NCC(C)N4)ccc2-3)N1 (centres undefined) | > 100 | 48.6 µM | > 100 µM | > 100 µM | > 100 µM | > 100 µM | > 100 µM | > 100 µM | 46.7 µM | > 100 µM | – | – | – | – | – | – | – | – | –
COC(=O)c1ccc2c(c1)CCN2C(=O)c1cc2c(cc1Br)OCO2 | 50 | 50 µM and > 100 µM | 30.8 µM and > 100 µM | 18.8 µM and 75.1 µM | 50 µM and 12.1 µM | 50 µM and > 100 µM | 50 µM and > 100 µM | 5.5 µM and 14.1 µM | 5.12 µM and 20.6 µM | 50 µM and 94.7 µM | 4.88 | 2.62 | 16.6 | 0.507 | 0.742 | 2 | 0.581 | 0.512 | 0.936
O=C(NCCc1ccc(F)cc1)c1cc(/C=C/c2cc(O)ccc2O)ccc1O | 14.4 | 12 µM | 14.1 µM | 6.52 µM | 62.1 µM | > 100 µM | 10.5 µM | 6.35 µM | 4.49 µM | 14 µM | – | – | – | – | – | – | – | – | –
C/C(=N\NC(=S)N/N=C(\C)c1ccccn1)c1ccccn1 | > 100 | > 100 µM | 82.6 µM | > 100 µM | > 100 µM | 1.7 µM | > 100 µM | > 100 µM | > 100 µM | > 100 µM | – | – | – | – | – | – | – | – | –
CN(CCN(C)Cc1ccc(Cl)c(Cl)c1)CCN1CCCC1 | > 90.5 | > 100 µM | 35.3 µM | 23.9 µM | > 72 µM | 23.6 µM | > 96.1 µM | 29.1 µM | > 100 µM | > 58.6 µM | – | – | – | – | – | – | – | – | –

— PubChem BioAssay (NCI)
